Measurements reported in patent publication US20120283283A1, “METHODS FOR DETECTING ENHANCED RISK OF OPIOID-INDUCED HYPOXIA IN A PATIENT” (priority 2011, published 2012).

Test system: patients with moderate to severe postoperative pain following bunionectomy surgery
Test: Three double blind, randomized clinical studies (007, 008, 021): oxygen desaturation (SpO2<90%) by pulse oximetry during 48 hour treatment
Details: for median number of episodes of SpO2<90%: patients who experienced oxygen desaturation
Experimental: Oxygen saturation was measured continuously during baseline and the 48 hour treatment periods using pulse oximetry. The total number and percentage of patients with oxygen desaturation (SpO2<90%) were recorded at: 0, 15, 30 and 45 minutes, and 1, 2, 3, 4, 5, 6 and 8 hours after study drug administration; at the time of administration of subsequent doses of study medication; at the time of administration of supplemental analgesic medication; 1 hour after administration of study medication; and whenever a desaturation occurred during the dosing period.
Respiration rate (<10 breaths/min, 10-12 breaths/min, >12 breaths/min) was summarized at the same time points as the SpO2 recordings. Cumulative MED was determined at the time of the first episode of SpO2<90%. All desaturations and use of supplemental oxygenation, use of narcotic antagonists against respiratory impairment, and respiratory related serious adverse events (SAEs) were recorded.
In subjects with oxygen desaturation the following data was recorded: cumulative MED at first desaturation; mean desaturation values; number of desaturation episodes; and total duration of desaturation episodes.
Some patients in the three clinical studies were enrolled who resided near study sites that are located at an altitude of about or over 4000 feet above sea level.

| SMILES | median number of episodes of SpO2<90% | incidence of desaturation (SpO2<90%) (12 mg MED, lower elevation / non-high altitude sites) | cumulative dose before experiencing an oxygen desaturation event (SpO2<90%) (cumulative MED at first desaturation) | incidence of desaturation at high elevation site compared to lower sites (morphine or oxycodone alone) |
| --- | --- | --- | --- | --- |
| CN1CC[C@]23c4c5ccc(O)c4O[C@H]2[C@@H](O)C=C[C@H]3[C@H]1C5.O=S(=O)(O)O [morphine, morphine sulfate] | 2.0 | – | – | – |
| COc1ccc2c3c1O[C@H]1C(=O)CC[C@@]4(O)[C@@H](C2)N(C)CC[C@]314.Cl [oxycodone, oxycodone hydrochloride] | 2.0 | 1.6% | 24 mg | ten-fold greater |
